The source of these data is patent US20250059218A1, “ENPP1 Inhibitors and Methods of Modulating Immune Response” (The Board of Trustees of the Leland Stanford Junior …, priority 2019, published 2025).

In one test the target is mouse ENPP1 (Mus musculus (Mouse), UniProt P06802). The test can be described thus: ENPP1 enzyme activity assay using cGAMP as substrate (luciferase detection of AMP). Type of test: biochemical.
A further test relates to CD14+ PBMCs. The test can be described thus: Stimulation of CD14+ PBMCs with extracellular cGAMP (IFNB1 RT-qPCR). The following applies: submicromolar soluble cGAMP. Type of test: cell-based, human.
In another test the test system is 4T1-Luc tumors. The test can be described thus: 4T1-Luc tumor mouse model (tumor volume, survival).
Where [1] appears, read: ENPP1 enzyme activity, second activity table (titled TABLE 2, Compounds; column without head), read-out: IC50.

Where two headings read alike, the source gives them in different places. Where only a bound is given, the exact number is not on record here.

Sequence of mouse ENPP1 (P06802 85-906): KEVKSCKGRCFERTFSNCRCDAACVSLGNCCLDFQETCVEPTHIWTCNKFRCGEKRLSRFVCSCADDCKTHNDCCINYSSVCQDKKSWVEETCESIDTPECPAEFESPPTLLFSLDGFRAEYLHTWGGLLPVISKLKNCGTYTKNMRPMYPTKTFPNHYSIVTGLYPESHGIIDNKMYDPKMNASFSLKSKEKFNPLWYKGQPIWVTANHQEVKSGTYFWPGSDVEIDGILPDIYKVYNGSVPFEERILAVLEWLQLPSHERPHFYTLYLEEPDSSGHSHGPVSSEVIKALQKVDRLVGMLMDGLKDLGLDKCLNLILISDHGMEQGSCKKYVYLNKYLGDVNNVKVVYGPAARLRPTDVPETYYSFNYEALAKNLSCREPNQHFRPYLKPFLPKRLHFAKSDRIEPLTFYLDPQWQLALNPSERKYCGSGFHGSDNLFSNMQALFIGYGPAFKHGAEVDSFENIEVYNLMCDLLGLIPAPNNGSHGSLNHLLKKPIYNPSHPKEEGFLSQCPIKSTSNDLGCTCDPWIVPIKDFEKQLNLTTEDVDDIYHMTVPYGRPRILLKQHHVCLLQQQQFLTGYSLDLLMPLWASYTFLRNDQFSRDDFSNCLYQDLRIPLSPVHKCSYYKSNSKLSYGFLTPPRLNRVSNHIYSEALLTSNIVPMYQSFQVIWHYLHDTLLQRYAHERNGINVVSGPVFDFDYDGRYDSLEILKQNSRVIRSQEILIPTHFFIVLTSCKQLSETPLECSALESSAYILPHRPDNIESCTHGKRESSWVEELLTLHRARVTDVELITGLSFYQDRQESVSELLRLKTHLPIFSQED

In the case of `COc1cc2ncnc(Nc3ccc(CP(=O)(O)O)cc3)c2cc1OC` [Compound 3], the IC50 at mouse ENPP1 (ENPP1 enzyme activity, Table 4, read-out: IC50) lay in the range of 50 to 100 nM.
The compound `COc1cc2ncnc(NCc3ccc(OP(O)(O)=S)cc3)c2cc1OC` [Compound 7] displayed an IC50 against mouse ENPP1 of 50 to 100 nM.
Turning to `COc1ccc2ncc(C#N)c(N3CCC(CCP(=O)(O)O)CC3)c2c1` [Compounds 44], the IC50 on mouse ENPP1 (setting [1]) lay within 50 to 100 nM.
On to `COc1cc2ncc(C#N)c(N3CCC(CCOP(O)(O)=S)CC3)c2cc1OC` [Compounds 202], for which the IC50 against mouse ENPP1 is 50 to 100 nM.
`COc1cccc2c(N3CCC(CCP(=O)(O)O)CC3)c(C#N)c(/C=C\c3cccnc3)nc12` [Compounds 206]: the IC50 on mouse ENPP1 (setting [1]) was more than 100 nM.
Turning to `Nc1nc2c(ncn2[C@@H]2O[C@@H]3COP(=O)(O)O[C@H]4[C@@H](O)[C@H](n5cnc6c(N)ncnc65)O[C@@H]4COP(=O)(O)O[C@@H]2[C@@H]3O)c(=O)[nH]1` [cGAMP, cyclic guanosine monophosphate-adenosine monophosphate], the IFNB1 response entry in the test with CD14+ PBMCs is “upregulating IFNB1”. In addition, the “effect over IR treatment” value in the test with 4T1-Luc tumors (20 Gy IR + intratumoral 10 μg cGAMP alone) is listed as “had no effect over IR treatment”. Further, the mice cured in the test with 4T1-Luc tumors (ENPP1−/− 4T1-Luc tumors, 20 Gy IR + intratumoral cGAMP, no anti-CTLA-4) came to 30%.

What is called IC50 is the concentration that inhibits the measured activity by half.
